From patent US20240002441A1, “PEPTIDES AND USES THEREOF IN MODULATION OF AMYLOID-BETA PROTEIN DEGRADING PROTEASES” (priority 2020, published 2024)

Experiments:
[1] = target: T1, IDE (Homo sapiens, UniProt P14735); test: QFS assay of Aβ-degrading enzymes: IDE (Example 6); format: biochemical
T1 sequence (P14735 1-1019): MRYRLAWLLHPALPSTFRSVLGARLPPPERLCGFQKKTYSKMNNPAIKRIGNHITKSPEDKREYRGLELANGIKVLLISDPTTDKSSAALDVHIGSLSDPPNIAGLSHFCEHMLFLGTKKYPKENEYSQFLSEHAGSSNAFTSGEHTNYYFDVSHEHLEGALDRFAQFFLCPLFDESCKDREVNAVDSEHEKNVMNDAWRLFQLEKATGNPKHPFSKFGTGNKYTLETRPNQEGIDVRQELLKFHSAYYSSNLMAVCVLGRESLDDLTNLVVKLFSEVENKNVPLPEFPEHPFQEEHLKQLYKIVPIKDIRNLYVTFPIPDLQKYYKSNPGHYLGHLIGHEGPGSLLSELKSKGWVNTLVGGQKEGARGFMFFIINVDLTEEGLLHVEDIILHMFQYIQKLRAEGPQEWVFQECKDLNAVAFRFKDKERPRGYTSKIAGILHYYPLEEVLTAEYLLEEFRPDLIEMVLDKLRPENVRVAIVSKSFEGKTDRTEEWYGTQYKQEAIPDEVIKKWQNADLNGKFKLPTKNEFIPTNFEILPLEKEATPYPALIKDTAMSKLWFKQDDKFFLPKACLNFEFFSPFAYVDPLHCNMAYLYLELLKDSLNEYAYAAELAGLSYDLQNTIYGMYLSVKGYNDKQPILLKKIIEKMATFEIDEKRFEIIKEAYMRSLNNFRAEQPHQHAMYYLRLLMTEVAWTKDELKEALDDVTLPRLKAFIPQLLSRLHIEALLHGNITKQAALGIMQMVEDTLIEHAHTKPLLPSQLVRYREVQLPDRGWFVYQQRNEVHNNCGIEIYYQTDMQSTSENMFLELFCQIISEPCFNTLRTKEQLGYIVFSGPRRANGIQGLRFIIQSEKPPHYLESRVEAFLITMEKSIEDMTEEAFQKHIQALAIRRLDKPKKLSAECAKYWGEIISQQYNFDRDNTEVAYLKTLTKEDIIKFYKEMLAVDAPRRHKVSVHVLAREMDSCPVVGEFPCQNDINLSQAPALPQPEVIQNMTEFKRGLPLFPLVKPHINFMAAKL
Procedure: Plate reader-based enzyme assays were performed using a quenched fluorescent substrate (QFS) in a 96-well format using a SpectraMAX M4 Microplate reader (Molecular Devices). The increase in fluorescence following addition of QFS (40 μM) was taken as evidence of enzyme activity. Fluorescence was monitored over 2 h at 37° C. using κEx=320 nm and λEm=405 nm. Assays were conducted in black 96-well plates. Specific enzyme activity was expressed as a rate of substrate cleavage calculated using a standard curve of 7-methoxy-coumarin-4-acetic acid.
In all plate reader-based enzyme assays using QFS, the reaction rate (μmol of substrate cleaved/min) was calculated using linear regression analysis (GraphPad Prism software version 8.01). The reaction rates calculated were used to generate the enzyme kinetic parameters Vmax and Km through non-linear regression analysis (GraphPad Prism software, version 8.01; Michaelis-Menten equation). Where indicated, enzyme activity in the presence of peptide was expressed as a % of the enzyme alone. Data were expressed as mean±SEM and statistical significance was determined using t-tests or one-way ANOVAs followed by Tukey's post-hoc test. P<0.05 was considered as statistically significant. In all assays conducted using 96-well plates, the reaction mixtures in each well were considered an independent experiment.
SEQ ID NO:2 was assessed in a QFS assay against enzymes NEP, ECE1, ECE2, ACE1, ACE2, IDE and MMP-2 using the method in Example 2 and the following procedure. NEP, ACE1, ECE2 (0.05 ng/μL), ACE2, IDE (0.10 ng/μL), and ECE1 (6.4 ng/μL) were incubated with SEQ ID NO:2 (0.9-26 μM) or scrambled control (9 μM) for 1 h at 37° C. Prior to use, MMP2 (0.50 ng/μL) was activated using p-aminophenylmercuric acetate to a final concentration of 100 μM for 1 h at 37° C. Following activation, MMP2 was incubated with SEQ ID NO:2 for 1 h at 37° C. before adding the appropriate QFS.

[2] = tested on: STZ diabetic mouse model; test: STZ diabetic mouse model, kidney inflammation and fibrosis, ND and STZ mice (Example 14); format: in vivo; conditions: for post treatment blood glucose compared with vehicle: 1 mg/kg s.c. osmotic minipump
Procedure: Mice were divided into four groups, two groups of mice remained untreated (ND) and two groups of mice were treated with STZ (150 mg/kg) by i.p. injection 1 week before starting treatment with SEQ ID NO. 2 or vehicle. Before treatment with SEQ ID NO. 2 or vehicle began, one week post STZ administration, 24 hour urine and blood samples were taken and blood glucose was assessed in all mice. The two ND groups and the two STZ treatment groups were then treated with either vehicle (10% DMSO/PBS) only or SEQ ID NO: 2 (1 mg/kg) subcutaneously by osmotic minipump. The mice were then monitored for 3 months before sacrifice. Monitoring included assessing the weight of each animal every day, taking blood samples biweekly and 24 hour urine samples at 1, 2 and 3 months post treatment. 24 hour urine samples were collected from mice placed in metabolic cages. At 3 months after treatment, a blood sample was collected (cardiac bleed) and the animals were sacrificed. Kidney and heart tissues were collected and weight and the tissues processed for in vitro analysis.
Urine samples were analysed for urinary albumin ELISA. The volume of urine was measured and then samples were diluted by 1:8000 with water. The samples were incubated for 1 h in antibody-coated 96-well plates (in duplicate). After incubation, a Development solution (100 μL) containing sandwich antibody was added to the wells and the samples incubated for 10 minutes in the dark. Stop solution (100 μL) was added and the optical density was measured at 450 nm.
The kidney tissue samples were analysed for fibrosis using Masson's trichrome staining. 4 μm-thick paraffin-embedded kidneys were sectioned. After dewaxing, sections were post-fixed in Bouin's fixative overnight. The slides were stained in Weigert's iron haematoxylin followed by Biebrich scarlet-acid fuchsin solution. The slides were differentiated in phosphomolybdic-phosphotungstic acid solution and then further stained in aniline blue solution. After differentiation in 1% acetic acid solution the slides were mounted with mounting medium and the sections were imaged on an Aperio Slide Scanner at ×20 magnification. The images were analysed on ImageJ.
Kidney samples in mice sacrificed one month after treatment were also analysed for the presence of IL-6 by western blot analysis. Homogenised kidney samples were heat-denatured and separated using SDS-PAGE. The membranes were incubated with IL-6 primary antibody at 1:500 dilution, followed by incubation with a secondary antibody (goad anti-rabbit antibody at 1:16000) and developed the following day using enhanced chemiluminescence (ECL) as a substrate. β-actin was used as a loading control.

H-SLFELGKMIL-NH2 [SEQ ID NO:2, H2N-SLFELGKMIL-NH2]
IDE activity compared with respective enzyme alone ([1]; peptide 2 μM (FIG. 2c)): did not increase | IDE activity compared with respective enzyme alone ([1]; peptide 9 μM, significantly less compared with ACE2 and NEP): significantly higher | IDE activity, concentration dependence ([1]; peptide 0.9-26 μM): increased the activity | post treatment blood glucose compared with vehicle ([2]; ND mice): similar | urine volume per day ([2]; ND mice, before and after treatment): the same before or after treatment | kidney:bodyweight ratio ([2]; ND mice, peptide or vehicle): remained the same | urinary albumin ([2]; ND mice, peptide or vehicle): remained the same | kidney:bodyweight ratio, increase compared with STZ mice treated with vehicle ([2]; STZ mice): even more | kidney IL-6 expression compared with vehicle treated STZ mice ([2]; STZ mice sacrificed one month after treatment, western blot): lower | post treatment blood glucose compared with vehicle ([2]; STZ mice): marginally lower | urinary albumin ([2]; STZ mice, 2 and 3 months post treatment, with either vehicle or peptide): increased | renal cortical fibrosis compared to STZ mice treated with vehicle ([2]; STZ mice, Masson's trichrome staining): tendency to be lower | urine volume per day ([2]; STZ mice, whether treated with peptide or vehicle): increased urine volume per day
